# Source: patent publication US8487108B2, “Piperidinyl carbamate intermediates for the synthesis of aspartic protease inhibitors” (Vitae Pharmaceuticals, Inc., priority 2005, dated 2013)
# Molecular target: T1, trypsin-activated recombinant human renin (Homo sapiens, UniProt P00797)
# T1 sequence (P00797 67-406): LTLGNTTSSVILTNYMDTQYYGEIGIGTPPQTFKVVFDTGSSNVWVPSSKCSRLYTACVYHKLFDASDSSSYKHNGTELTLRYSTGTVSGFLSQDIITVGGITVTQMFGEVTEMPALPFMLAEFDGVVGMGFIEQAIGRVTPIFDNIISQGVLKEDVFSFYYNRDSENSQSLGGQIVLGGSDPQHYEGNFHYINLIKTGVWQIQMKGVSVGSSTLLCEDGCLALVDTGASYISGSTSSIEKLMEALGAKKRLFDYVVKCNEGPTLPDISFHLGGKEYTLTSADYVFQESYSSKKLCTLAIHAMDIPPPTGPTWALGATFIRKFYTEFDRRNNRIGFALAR
# Experiment: Renin fluorescence assay (internally quenched peptide substrate)
# Format: biochemical
# Conditions: compounds I*
# Experimental: The sequence of this peptide corresponds to the sequence of human angiotensinogen. The following test protocol can be used. All reactions are carried out in a flat bottom white opaque microtiter plate. A 4 μL aliquot of 400 μM renin substrate (DABCYL-γ-[…]) in 192 μL assay buffer (50 mM BES, 150 mM NaCl, 0.25 mg/mL bovine serum albumin, pH7.0) is added to 4 μL of test compound in DMSO at various concentrations ranging from 10 μM to 1 nM final concentrations. Next, 100 μL of trypsin-activated recombinant human renin (final enzyme concentration of 0.2-2 nM) in assay buffer is added, and the solution is mixed by pipetting. The increase in fluorescence at 495 nm (excitation at 340 nm) is measured for 60-360 minutes at rt using a Perkin-Elmer Fusion microplate reader. The slope of a linear portion of the plot of fluorescence-increase as a function of time is then determined, and the rate is used for calculating percent inhibition in relation to uninhibited control. […] (Wang G. T. et al. Anal. Biochem. 1993, 210, 351; Nakamura, N. et al. J. Biochem. (Tokyo) 1991, 109, 741; Murakami, K. et al. Anal Biochem. 1981, 110, 232).
row,SMILES,IC50 [nM]
1,"CNC[C@H](CC1CCCCC1)NC(=O)N1CCC[C@@H]([C@@](C)(OCC(=O)NC)c2cccc(Cl)c2)C1 [I*-25a, (R)-3-((R)-1-(3-chlorophenyl)-1-(2-(methylamino)-2-oxoethoxy)ethyl)-N—((S)-1-cyclohexyl-3-(methylamino)propan-2-yl)piperidine-1-carboxamide]",> 50
2,"CNC[C@H](CC1CCOCC1)NC(=O)N1CCC[C@@H]([C@@H](OCCNC(=O)OC)c2cccc(F)c2)C1 [I*-26a, methyl 2-((R)-(3-fluorophenyl)((R)-1-((S)-1-(methylamino)-3-(tetrahydro-2H-pyran-4-yl)propan-2-ylcarbamoyl)piperidin-3-yl)methoxy)ethylcarbamate]",< 50
3,"CNC[C@@H](NC(=O)N1CCC[C@@H]([C@@H](OCCNC(=O)OC)c2cccc(F)c2)C1)[C@@H](O)C1CCCC1 [I*-27a, methyl 2-((R)-((R)-1-((1S,2R)-1-cyclopentyl-1-hydroxy-3-(methylamino)propan-2-ylcarbamoyl)piperidin-3-yl)(3-fluorophenyl)methoxy)ethylcarbamate]",< 10
4,"COC(=O)NCCO[C@@H](c1cccc(F)c1)[C@@H]1CCCN(C(=O)NC[C@@H](N)C[C@H]2CCCCOC2)C1 [I*-28a, methyl 2-((R)-((R)-1-((S)-2-amino-3-((R)-oxepan-3-yl)propylcarbamoyl)piperidin-3-yl)(3-fluorophenyl)methoxy)ethylcarbamate]",< 10
5,"CNC[C@H](CC1CCCC1)NC(=O)N1CCC[C@@H]([C@@H](OCCNC(=O)OC)c2cccc(Cl)c2)C1 [I*-29a, methyl 2-((R)-(3-chlorophenyl)((R)-1-((S)-1-cyclopentyl-3-(methylamino)propan-2-ylcarbamoyl)piperidin-3-yl)methoxy)ethylcarbamate]",< 1
6,"CCNC(=O)CO[C@@H](c1cccc(Cl)c1)[C@@H]1CCCN(C(=O)N[C@H](CNC)C[C@H]2CCCOC2)C1 [I*-30a, (R)-3-((R)-(3-chlorophenyl)(2-(ethylamino)-2-oxoethoxy)methyl)-N—((S)-1-(methylamino)-3-((R)-tetrahydro-2H-pyran-3-yl)propan-2-yl)piperidine-1-carboxamide]",< 20
7,"CCNC(=O)CO[C@@H](c1cccc(Cl)c1)[C@@H]1CCCN(C(=O)N[C@H](CNC)CC2CCOCC2)C1 [I*-31a, (R)-3-((R)-(3-chlorophenyl)(2-(ethylamino)-2-oxoethoxy)methyl)-N—((S)-1-(methylamino)-3-(tetrahydro-2H-pyran-4-yl)propan-2-yl)piperidine-1-carboxamide]",> 50
8,"CNC[C@H](CC1CCCCC1)NC(=O)N1CCC[C@@H]([C@@H](OCCNC(=O)OC)c2nc(C)cs2)C1 [I*-32a, methyl 2-((R)-((R)-1-((S)-1-cyclohexyl-3-(methylamino)propan-2-ylcarbamoyl)piperidin-3-yl)(4-methylthiazol-2-yl)methoxy)ethylcarbamate]",< 10
9,"CNC[C@H](CC1CCCCC1)NC(=O)N1CCC[C@@H]([C@H](OCCNC(=O)OC)c2nc(C)cs2)C1 [I*-33a, methyl 2-((S)-((R)-1-((S)-1-cyclohexyl-3-(methylamino)propan-2-ylcarbamoyl)piperidin-3-yl)(4-methylthiazol-2-yl)methoxy)ethylcarbamate]",> 50
10,"CCC(C)(C)C[C@@H](CNC)NC(=O)N1CCC[C@@H]([C@@H](OCCNC(=O)OC)c2cccc(Cl)c2)C1 [I*-34a, methyl 2-((R)-(3-chlorophenyl)((R)-1-((S)-4,4-dimethyl-1-(methylamino)hexan-2-ylcarbamoyl)piperidin-3-yl)methoxy)ethylcarbamate]",< 10
11,"COCC(C)(C)C[C@H](N)CNC(=O)N1CCC[C@@H]([C@@H](OCCNC(=O)OC)c2cccc(Cl)c2)C1 [I*-35a, methyl 2-((R)—((R)-1-((S)-2-amino-5-methoxy-4,4-dimethylpentylcarbamoyl)piperidin-3-yl)(3-chlorophenyl)methoxy)ethylcarbamate]",< 20
12,"CNC[C@H](CC1CCOCC1)NC(=O)N1CCC[C@@H]([C@@H](OCCNC(=O)OC)c2cc(C)cc(C)c2)C1 [I*-36a, methyl 2-((R)-(3,5-dimethylphenyl)((R)-1-((S)-1-(methylamino)-3-(tetrahydro-2H-pyran-4-yl)propan-2-ylcarbamoyl)piperidin-3-yl)methoxy)ethylcarbamate]",< 50
13,"CNC[C@H](CC1CCOCC1)NC(=O)N1CCC[C@@H]([C@@H](OCCNC(=O)OC)c2cc(C)ccc2C)C1 [I*-37a, methyl 2-((R)-(2,5-dimethylphenyl)((R)-1-((S)-1-(methylamino)-3-(tetrahydro-2H-pyran-4-yl)propan-2-ylcarbamoyl)piperidin-3-yl)methoxy)ethylcarbamate]",< 20
14,"CNC[C@H](CC1CCCCC1)NC(=O)N1CCC[C@@H]([C@@H](OCCCC(=O)NC)c2cccc(Cl)c2)C1 [I*-45a, (R)-3-((R)-(3-chlorophenyl)(4-(methylamino)-4-oxobutoxy)methyl)-N—((S)-1-cyclohexyl-3-(methylamino)propan-2-yl)piperidine-1-carboxamide]",< 50

# More lines, now with the values ahead:
row,IC50 [nM],SMILES
1,< 50,"COC(=O)NCCO[C@@H](c1cccc(Cl)c1)[C@@H]1CCCN(C(=O)NC[C@@H](N)COc2ccccc2)C1 [I*-38a, methyl 2-((R)—((R)-1-((R)-2-amino-3-phenoxypropylcarbamoyl)piperidin-3-yl)(3-chlorophenyl)methoxy)ethylcarbamate]"
2,< 1,"CNC[C@H](CC1CCCCCC1)NC(=O)N1CCC[C@@H]([C@@H](OCCNC(=O)OC)c2cccc(F)c2)C1 [I*-39a, methyl 2-((R)-((R)-1-((S)-1-cycloheptyl-3-(methylamino)propan-2-ylcarbamoyl)piperidin-3-yl)(3-fluorophenyl)methoxy)ethylcarbamate]"
3,< 1,"CNC[C@H](CC1CCCCC1)NC(=O)N1CCC[C@@H]([C@@H](OCCNC(=O)OC)c2cc(F)ccc2C)C1 [I*-40a, methyl 2-((R)-((R)-1-((S)-1-cyclohexyl-3-(methylamino)propan-2-ylcarbamoyl)piperidin-3-yl)(5-fluoro-2-methylphenyl)methoxy)ethylcarbamate]"
4,< 10,"CCNC[C@H](CC1CCCCC1)NC(=O)N1CCC[C@@H]([C@@H](OCCNC(=O)OC)c2cccc(F)c2)C1 [I*-41a, methyl 2-((R)-((R)-1-((S)-1-cyclohexyl-3-(ethylamino)propan-2-ylcarbamoyl)piperidin-3-yl)(3-fluorophenyl)methoxy)ethylcarbamate]"
5,> 50,"CNC[C@@H](CC1(C)CCCCC1)NC(=O)N1CCC[C@@H]([C@@H](OCCNC(=O)OC)c2cccc(F)c2)C1 [I*-42a, methyl 2-((R)-(3-fluorophenyl)((R)-1-((R)-1-(methylamino)-3-(1-methylcyclohexyl)propan-2-ylcarbamoyl)piperidin-3-yl)methoxy)ethylcarbamate]"
6,< 10,"CNC[C@H](CC1(C)CCCCC1)NC(=O)N1CCC[C@@H]([C@@H](OCCNC(=O)OC)c2cccc(F)c2)C1 [I*-43a, methyl 2-((R)-(3-fluorophenyl)((R)-1-((S)-1-(methylamino)-3-(1-methylcyclohexyl)propan-2-ylcarbamoyl)piperidin-3-yl)methoxy)ethylcarbamate]"
